Data taken from patent US20260355199A1, “COMPOSITIONS AND METHODS FOR TREATING OR PREVENTING NONALCOHOLIC STEATOHEPATITIS (NASH), ANOREXIA, DEPRESSION, ENDOMETRIOSIS, AND OTHER DISEASES OR DISORDERS” (priority 2022, published 2026).

How the values were obtained:
TET2 = TET2 protein stability (cycloheximide) in MDMs; format: cell-based, human; details: 10 μM, with cycloheximide
Protocol: For TET protein stability assay of MDMs, cells in 24-well plates were incubated with vehicle or Bobcat339 at a final concentration of 10 μM for 3 h, followed by addition of cycloheximide (CHX, Cell Signaling, 2112) at a final concentration of 50 μg/mL. Proteins were harvested at 0, 2, 4, and 6 hours after addition of CHX.

TET3 = details: Lv et al., 2023; cited from earlier work
Agrp promoter = assay: ChIP-qPCR at the Agrp promoter in mouse ARC; format: in vivo; details: leptin 5 mg/kg
Protocol: To prepare antibodies, 5 μl (packed volume) of ChIP grade Dynabeads Protein G (Invitrogen, Thermo Scientific, 10004D) were washed twice with 1 ml of binding buffer (0.2% Tween-20 in PBS), followed by incubation on a rotator with 10 μg of rabbit polyclonal anti-TET3 (Active Motif, 61395) (FIG. 12A), anti-STAT3 (Proteintech, 10253-2-AP), anti-NCOR1 (Cell Signaling, 5948S) (Hainberger et al., 2020, Front Immunol., 11:579), anti-HDAC4 (Active Motif, 40969) (FIG. 12B), anti-H3K9ac (Active Motif, 39137) (validated by the vendor), or preimmune rabbit IgG (as a negative control) in 350 μl of binding buffer at 4 °C overnight (Gao, Y. et al., 2020, Advanced Science, 7:2002518; Hainberger, D. et al., 2020, Frontiers in Immunology, 11:579). Antibody bound beads were washed twice with 1 ml of binding buffer, resuspended in 50 μl of dilution buffer (0.01% SDS, 1.1% Triton X-100, 1.2 mM EDTA, 16.7 mM Tris-HCl at PH 8.0, 167 mM NaCl), and kept on ice until use. To prepare chromatin, freshly isolated ARCs (2 ARCs from one mouse per ChIP, FIG. 6D and FIG. 6I) were washed twice with 1 ml of cold-PBS, followed by cross-linking in 1% paraformaldehyde/PBS on a rotator at room temperature for 15 min. Glycine buffer (150 mM final concentration) was added and incubated in rotation at room temperature for 10 min to quench cross-linking. Cross-linked ARCs were washed twice with PBS and homogenized (5-10 strokes) using a disposable pellet pestle (Fisher Scientific, 12-141-368) in 300 μl of cold cell lysis buffer (50 mM Tris-HCl at PH 8.0, 140 mM NaCl, 1 mM EDTA, 10% glycerol, 0.5% NP-40, 0.25% Triton X-100), followed by incubation at 4 °C for 20 min to lyse the plasma membrane. […]

| Compound | TET2 protein stability (TET2) | minimal effective concentration (TET3) [µM] | histone acetylation (H3K9ac) at the Agrp promoter (Agrp promoter) | binding of STAT3, TET3, NCOR1, and HDAC4 to the Agrp promoter (Agrp promoter; AAV-sgTet3 mice) | binding of STAT3, TET3, NCOR1, and HDAC4 to the Agrp promoter (Agrp promoter; control mice) |
| --- | --- | --- | --- | --- | --- |
| Nc1nc(=O)n(-c2cccc(-c3ccccc3)c2)cc1Cl [Bobcat339, 4-Amino-1-[1,1′-biphenyl]-3-yl-5-chloro-2(1H)-pyrimidinone] | destabilized both proteins | 10 | – | – | – |
| leptin: adipose hormone; mouse leptin L3772-1MG or human leptin L4146-1MG, Sigma Aldrich | – | – | reduction was observed in histone acetylation at the Agrp promoter | failed to do so in AAV-sgTet3 injected mice | increased binding of STAT3, TET3, NCOR1, and HDAC4 to the Agrp promoter |
